Like-named read-outs stand apart in the source and are kept apart here.
Columns and labels:
[1] = molecular target: T1, Androgen receptor (AR) (Homo sapiens, UniProt P10275, T878A); assay: Assessment of AR proteolytic activity (Western blotting of LNCap cell lysates); format: cell-based; conditions: 24 hours of treatment, Western blotting quantified with Image J
T1 construct: 5.5×10^5 LNCap cells were injected into each well of a 6-well plate; endogenous in cells; host or cells: LNCaP
T1 sequence (P10275 1-920 T878A): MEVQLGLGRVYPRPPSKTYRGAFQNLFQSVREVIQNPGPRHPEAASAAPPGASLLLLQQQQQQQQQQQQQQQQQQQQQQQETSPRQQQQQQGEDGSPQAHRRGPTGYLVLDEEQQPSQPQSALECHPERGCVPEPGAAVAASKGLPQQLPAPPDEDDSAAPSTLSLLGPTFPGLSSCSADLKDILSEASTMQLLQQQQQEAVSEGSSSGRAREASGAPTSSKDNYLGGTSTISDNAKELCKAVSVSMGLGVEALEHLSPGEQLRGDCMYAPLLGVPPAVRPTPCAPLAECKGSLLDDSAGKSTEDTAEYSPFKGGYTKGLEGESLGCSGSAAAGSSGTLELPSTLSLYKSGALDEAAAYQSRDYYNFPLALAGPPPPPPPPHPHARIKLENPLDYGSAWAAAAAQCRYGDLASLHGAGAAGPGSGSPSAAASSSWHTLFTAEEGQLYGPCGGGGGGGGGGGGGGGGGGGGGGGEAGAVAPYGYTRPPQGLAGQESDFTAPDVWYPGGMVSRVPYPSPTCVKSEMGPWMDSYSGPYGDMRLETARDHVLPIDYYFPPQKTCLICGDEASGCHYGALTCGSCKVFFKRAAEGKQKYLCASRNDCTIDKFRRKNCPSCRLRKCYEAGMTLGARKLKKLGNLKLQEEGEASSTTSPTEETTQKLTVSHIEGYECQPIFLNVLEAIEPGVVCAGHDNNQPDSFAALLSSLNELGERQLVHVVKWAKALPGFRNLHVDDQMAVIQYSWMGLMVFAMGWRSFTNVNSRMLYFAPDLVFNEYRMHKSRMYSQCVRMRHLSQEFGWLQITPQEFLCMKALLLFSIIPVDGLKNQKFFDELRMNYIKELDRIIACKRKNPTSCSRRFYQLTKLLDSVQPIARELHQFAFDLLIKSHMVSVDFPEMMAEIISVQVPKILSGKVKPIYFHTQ
In short: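 LNCap cells seeded at 5.5×10^5 per well and treated with compound for 24 hours. Lysates prepared in RIPA buffer (pH 7.5, with protease inhibitors). AR protein levels assessed by Western blot with densitometric quantification.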

[2] = tested on: LNCaP cells
[3] = tested on: VCaP cells
[4] = tested on: VCaP cells; assay: Cytotoxicity assessment (Cell-titer-glo cell viability), VCaP
[5] = tested on: LNCaP cells; assay: Cytotoxicity assessment (Cell-titer-glo cell viability), LNCaP

Row | Structure (SMILES) | Degradation (1 μM treated in LNCaP, % AR remaining) [1] [%] | CC50 [2] [nM] | CC50 [3] [nM] | further results
1 | CC1(C)[C@H](NC(=O)c2ccc(N3CCN(CC4CCN(c5cccc6nnn(C7CCC(=O)NC7=O)c(=O)c56)CC4)CC3)cc2)C(C)(C)[C@H]1Oc1ccc(C#N)c(Cl)c1 (some centres unmarked) [Example 7, N-((1r,3r)-3-(3-chloro-4-cyanophenoxy)-2,2,4,4-tetramethylcyclobutyl)-4-(4-((1-(3-(2,6-dioxopiperidin-3-yl)-4-oxo-3,4-dihydrobenzo[d][1,2,3]triazin-5-yl)piperidin-4-yl)methyl)piperazin-1-yl)benzamide] | 24.3 | 902 |  | 
2 | CC1(C)C(NC(=O)c2ccc(OCCOCCOCCOCCOCCOCCCCNc3cccc4nnn(C5CCC(=O)NC5=O)c(=O)c34)cc2)C(C)(C)C1Oc1ccc(C#N)c(Cl)c1 (centres unmarked) [Example 5, N-((1r,3r)-3-(3-chloro-4-cyanophenoxy)-2,2,4,4-tetramethylcyclobutyl)-4-((19-((3-(2,6-dioxopiperidin-3-yl)-4-oxo-3,4-dihydrobenzo[d][1,2,3]triazin-5-yl)amino)-3,6,9,12,15-pentaoxanonadecyl)oxy)benzamide] | 6 | 1600 |  | 
3 | CC1(C)[C@H](NC(=O)c2ccc(N3CCN(CCC4CCN(C(=O)COc5ccc6nnn(C7CCC(=O)NC7=O)c(=O)c6c5)CC4)CC3)cc2)C(C)(C)[C@H]1Oc1ccc(C#N)c(Cl)c1 (some centres unmarked) [Example 24, N-((1r,3r)-3-(3-chloro-4-cyanophenoxy)-2,2,4,4-tetramethylcyclobutyl)-4-(4-(2-(1-(2-((3-(2,6-dioxopiperidin-3-yl)-4-oxo-3,4-dihydrobenzo[d][1,2,3]triazin-6-yl)oxy)acetyl)piperidin-4-yl)ethyl)piperazin-1-yl)benzamide] | 13 | 1480 | 107 | 
4 | CC1(C)[C@H](NC(=O)c2ccc(-n3cc(C4CCN(C(=O)C5CN(c6ccc7nnn(C8CCC(=O)NC8=O)c(=O)c7c6)C5)CC4)nn3)cc2)C(C)(C)[C@H]1Oc1ccc(C#N)c(Cl)c1 (some centres unmarked) [Example 101, N-((1r,3r)-3-(3-chloro-4-cyanophenoxy)-2,2,4,4-tetramethylcyclobutyl)-4-(4-(1-(1-(3-(2,6-dioxopiperidin-3-yl)-4-oxo-3,4-dihydrobenzo[d][1,2,3]triazin-6-yl)azetidine-3-carbonyl)piperidin-4-yl)-1H-1,2,3-triazol-1-yl)benzamide] | 40 | 7.06 | 15.5 | 
5 | CC1(C)C(NC(=O)c2ccc(OCCOCCOCCOCCOCCOCCCCNc3ccc4nnn(C5CCC(=O)NC5=O)c(=O)c4c3)cc2)C(C)(C)C1Oc1ccc(C#N)c(Cl)c1 (centres unmarked) [Example 17, N-((1r,3r)-3-(3-chloro-4-cyanophenoxy)-2,2,4,4-tetramethylcyclobutyl)-4-((19-((3-(2,6-dioxopiperidin-3-yl)-4-oxo-3,4-dihydrobenzo[d][1,2,3]triazin-6-yl)amino)-3,6,9,12,15-pentaoxanonadecyl)oxy)benzamide] | 6.7 | 835 |  | 
6 | CC1(C)C(NC(=O)c2ccc(OCCOCCOCCOCCOCCNc3cccc4nnn(C5CCC(=O)NC5=O)c(=O)c34)cc2)C(C)(C)C1Oc1ccc(C#N)c(Cl)c1 (centres unmarked) [Example 2, N-((1r,3r)-3-(3-chloro-4-cyanophenoxy)-2,2,4,4-tetramethylcyclobutyl)-4-((14-((3-(2,6-dioxopiperidin-3-yl)-4-oxo-3,4-dihydrobenzo[d][1,2,3]triazin-5-yl)amino)-3,6,9,12-tetraoxatetradecyl)oxy)benzamide] | 100 | 4930 |  | 
7 | CC1(C)C(NC(=O)c2ccc(OCCOCCOCCOCCOCCOCCCCNC(=O)CNc3cccc4nnn(C5CCC(=O)NC5=O)c(=O)c34)cc2)C(C)(C)C1Oc1ccc(C#N)c(Cl)c1 (centres unmarked) [Example 14, N-((1r,3r)-3-(3-chloro-4-cyanophenoxy)-2,2,4,4-tetramethylcyclobutyl)-4-((22-((3-(2,6-dioxopiperidin-3-yl)-4-oxo-3,4-dihydrobenzo[d][1,2,3]triazin-5-yl)amino)-21-oxo-3,6,9,12,15-pentaoxa-20-azadocosyl)oxy)benzamide] | 35.3 | 4020 |  | 
8 | CC1(C)[C@H](NC(=O)c2ccc(N3CCN(CC4CCN(c5ccc6nnn(C7CCC(=O)NC7=O)c(=O)c6c5)CC4)CC3)cc2)C(C)(C)[C@H]1Oc1ccc(C#N)c(Cl)c1 (some centres unmarked) [Example 8, N-((1r,3r)-3-(3-chloro-4-cyanophenoxy)-2,2,4,4-tetramethylcyclobutyl)-4-(4-((1-(3-(2,6-dioxopiperidin-3-yl)-4-oxo-3,4-dihydrobenzo[d][1,2,3]triazin-6-yl)piperidin-4-yl)methyl)piperazin-1-yl)benzamide] |  |  |  | remaining activity at 1 µM ([1]; read-out: Degradation (1 μM treated in LNCaP, % AR remaining)): 8.1%; CC50 ([4]; Homo sapiens, VCaP, 144 h, read-out: VCaP (CC50, μM)): 0.685 µM; CC50 ([5]; Homo sapiens, LNCaP, 144 h, read-out: LNCAP (CC50, μM)): 0.163 µM
9 | CC1(C)[C@H](NC(=O)c2ccc(N3CCN(C4CC5(CCN(c6ccc7nnn(C8CCC(=O)NC8=O)c(=O)c7c6)CC5)C4)CC3)cc2)C(C)(C)[C@H]1Oc1ccc(C#N)c(Cl)c1 (some centres unmarked) [Example 23, N-((1r,3r)-3-(3-chloro-4-cyanophenoxy)-2,2,4,4-tetramethylcyclobutyl)-4-(4-(7-(3-(2,6-dioxopiperidin-3-yl)-4-oxo-3,4-dihydrobenzo[d][1,2,3]triazin-6-yl)-7-azaspiro[3.5]nonan-2-yl)piperazin-1-yl)benzamide] | 5 |  |  | CC50 ([4]; read-out: VCaP (CC50), VCaP cells, 6 days of treatment, Cell-titer-glo, vs DMSO): 0.191 µM; CC50 ([5]; read-out: LNCAP (CC50), LNCaP cells, 6 days of treatment, Cell-titer-glo, vs DMSO): 0.302 µM

Now from value to compound, other results behind:

Row | Degradation (1 μM treated in LNCaP, % AR remaining) [1] [%] | Structure (SMILES) | CC50 [2] [nM] | CC50 [3] [nM] | further results
10 | 7 | CC1(C)[C@H](NC(=O)c2ccc(N3CCN(CC4CCN(c5ccc6c(=O)n(C7CCC(=O)NC7=O)nnc6c5)CC4)CC3)cc2)C(C)(C)[C@H]1Oc1ccc(C#N)c(Cl)c1 (some centres unmarked) [Example 12, N-((1r,3r)-3-(3-chloro-4-cyanophenoxy)-2,2,4,4-tetramethylcyclobutyl)-4-(4-((1-(3-(2,6-dioxopiperidin-3-yl)-4-oxo-3,4-dihydrobenzo[d][1,2,3]triazin-7-yl)piperidin-4-yl)methyl)piperazin-1-yl)benzamide] | 1310 |  | 
11 | 6 | CC1(C)[C@H](NC(=O)c2ccc(N3CCN(CC4(F)CCN(C(=O)C5CN(c6ccc7nnn(C8CCC(=O)NC8=O)c(=O)c7c6)C5)CC4)CC3)cc2)C(C)(C)[C@H]1Oc1ccc(C#N)c(Cl)c1 (some centres unmarked) [Example 63, N-((1r,3r)-3-(3-chloro-4-cyanophenoxy)-2,2,4,4-tetramethylcyclobutyl)-4-(4-((1-(1-(3-(2,6-dioxopiperidin-3-yl)-4-oxo-3,4-dihydrobenzo[d][1,2,3]triazin-6-yl)azetidine-3-carbonyl)-4-fluoropiperidin-4-yl)methyl)piperazin-1-yl)benzamide] | 53.2 | 14.8 | 
12 | 7 | CC1(C)[C@H](NC(=O)c2ccc(N3CCN(CC4CCN(C(=O)C5CN(c6ccc7nnn(C8CCC(=O)NC8=O)c(=O)c7c6)C5)CC4)CC3)cc2)C(C)(C)[C@H]1Oc1ccc(C#N)c(Cl)c1 (some centres unmarked) [Example 11, N-((1r,3r)-3-(3-chloro-4-cyanophenoxy)-2,2,4,4-tetramethylcyclobutyl)-4-(4-((1-(1-(3-(2,6-dioxopiperidin-3-yl)-4-oxo-3,4-dihydrobenzo[d][1,2,3]triazin-6-yl)azetidine-3-carbonyl)piperidin-4-yl)methyl)piperazin-1-yl)benzamide] | 91.4 | 74.7 | 
13 | 39.9 | CC1(C)[C@H](NC(=O)c2ccc(N3CCN(CC4CCN(C(=O)CNc5ccc6nnn(C7CCC(=O)NC7=O)c(=O)c6c5)CC4)CC3)cc2)C(C)(C)[C@H]1Oc1ccc(C#N)c(Cl)c1 (some centres unmarked) [Example 9, N-((1r,3r)-3-(3-chloro-4-cyanophenoxy)-2,2,4,4-tetramethylcyclobutyl)-4-(4-((1-((3-(2,6-dioxopiperidin-3-yl)-4-oxo-3,4-dihydrobenzo[d][1,2,3]triazin-6-yl)glycyl)piperidin-4-yl)methyl)piperazin-1-yl)benzamide] | 117 |  | 
